# Test results: US12458651B2, “Compounds and their uses for alleviating menopause-associated symptoms” (ESTETRA SRL, priority 2018, dated 2025)
# Like-named read-outs stand apart in the source and are kept apart here.
# Assays:
# post-menopausal women [1] = assay: Dose-finding study: hot flush weekly weighted score; type: in vivo; conditions: 15 mg per day, week 12
# Procedure: Further, the terms “Hot Flush Weekly Weighted Score”, as used herein, corresponds to a score taking into account frequency and severity which is calculated by using the severity score (as calculated above): [(1×No. of mild VMS)+(2×No. of moderate VMS)+(3×No. of severe VMS)] during a 7 day period.
# Such a weighted score was for example used by Notelovitz et al. (“Initial 17β-Estradiol Dose for Treating Vasomotor Symptoms”; Obstetrics and Gynaecology, Vol. 95(5), May 2000, p. 726-731). This score was used to generate the data included in Example 1 further below, under section A. c) “Hot Flush Weekly Weighted Score”.
# post-menopausal women [2] = assay: Adverse events (AEs, TEAEs) in the dose-finding study; type: in vivo
# From the text: This is confirmed by the following statistical analysis. Using a Poisson regression model with a random effect for the patient and treatment group as a covariate to model the count of TEAEs in the different treatment groups, it can be shown that there is no statistical difference between the treatment groups (p value of 0.099). Second, a chi-square test was used to assess if the prevalence of patients reporting TEAEs in each treatment group was similar. No statistical difference was found between the treatment groups (p value of 0.575).
# [3] = Triglycerides level at 15 mg and 20 mg daily doses; type: in vivo; conditions: 20 mg daily dose in place of 15 mg daily dose
# Procedure: In order to better assess the potential for increasing the daily dose beyond the minimum effective dose of 15 mg daily, a number of parameters were followed in a study where estetrol was administered at the increased dose of 20 mg per day.
# 1. Triglycerides Level (mmol/L)
# postmenopausal women [4] = conditions: 2 mg estetrol per day for 28 days; cited from earlier work
# post-menopausal women [5] = assay: GSM symptom (VVA self-assessment): vaginal dryness; type: in vivo
# Procedure: Change from baseline to week 12 in the following GSM symptoms (VVA subject self-assessment) were recorded: • a) Vaginal dryness (sensation of dryness or burning in the vagina; none=0 mild=1, moderate=2 or severe=3): […]
# postmenopausal women [6] = conditions: cited from earlier work
# [7] = system: C-terminal telopeptide (CTX-1); assay: C-terminal telopeptide (CTX-1), marker of bone resorption; type: in vivo
# post-menopausal women [8] = assay: GSM symptom: vaginal pain associated with sexual activity; type: in vivo
# Procedure: Change from baseline to week 12 in the following GSM symptoms (VVA subject self-assessment) were recorded: • a) Vaginal dryness (sensation of dryness or burning in the vagina; none=0 mild=1, moderate=2 or severe=3):
# • d) Vaginal pain associated with sexual activity (sensation of pain with sexual intercourse none=0, mild=1, moderate=2 or severe=3): […]
compound,measurement,setting,value
"C[C@]12CC[C@@H]3c4ccc(O)cc4CC[C@H]3[C@@H]1[C@@H](O)[C@@H](O)[C@@H]2O [Estetrol, 1,3,5 (10)-estratrien-3,15alpha,16alpha,17beta-tetrol]","Relative change (% from baseline) in hot flush weekly weighted score, mean (section B analysis)",post-menopausal women [1],−81%
same,Percentage of patients with TEAE leading to Study Discontinuation,post-menopausal women [2]; 2.5 mg group,1.9%
same,Percentage of patients with severe TEAE,post-menopausal women [2]; 2.5 mg group,7.7%
same,Percentage of patients with TEAE leading to Study Discontinuation,post-menopausal women [2]; 5 mg group,6.4%
same,Percentage of patients with severe TEAE,post-menopausal women [2]; 5 mg group,10.6%
same,Average AEs per patient (patients who had AEs),post-menopausal women [2]; 10 mg group,3.2
same,Percentage of patients with TEAE leading to Study Discontinuation,post-menopausal women [2]; 10 mg group,5.6%
same,Percentage of patients with severe TEAE,post-menopausal women [2]; 10 mg group,7.4%
same,Average AEs per patient (patients who had AEs),post-menopausal women [2]; 15 mg group,2.6
same,Percentage of patients with TEAE leading to Study Discontinuation,post-menopausal women [2]; 15 mg group,4.1%
same,Percentage of patients with severe TEAE,post-menopausal women [2]; 15 mg group,6.1%
same,"Lipid parameters (triglycerides, cholesterol, HDL, LDL) and glucose level",[3],do not behave significantly differently
same,Mean number of hot flushes and sweating,postmenopausal women [4],decrease
same,"Vaginal dryness score (none=0 to severe=3), mean ± SD","post-menopausal women [5]; E4 2.5 mg, Baseline",1 ± 0.90
same,"Vaginal dryness score (none=0 to severe=3), mean ± SD","post-menopausal women [5]; E4 2.5 mg, Week 12",0.5 ± 0.77
same,"Vaginal dryness score (none=0 to severe=3), mean ± SD","post-menopausal women [5]; E4 5 mg, Baseline",1.3 ± 0.94
same,"Vaginal dryness score (none=0 to severe=3), mean ± SD","post-menopausal women [5]; E4 5 mg, Week 12",0.7 ± 0.86
same,"Vaginal dryness score (none=0 to severe=3), mean ± SD","post-menopausal women [5]; E4 10 mg, Baseline",1 ± 0.93
same,"Vaginal dryness score (none=0 to severe=3), mean ± SD","post-menopausal women [5]; E4 10 mg, Week 12",0.5 ± 0.75
same,"Vaginal dryness score (none=0 to severe=3), mean ± SD","post-menopausal women [5]; E4 15 mg, Baseline",1.1 ± 1.04
same,"Vaginal dryness score (none=0 to severe=3), mean ± SD","post-menopausal women [5]; E4 15 mg, Week 12",0.5 ± 0.68
same,Endometrial thickness,postmenopausal women [6]; 2 mg estetrol per day,stable
same,Endometrial thickness,postmenopausal women [6]; 10 mg estetrol per day,increasing
same,"Bone resorption (CTX-1), decrease compared with 15 mg daily dose","[7]; 20 mg daily dose, after 28 days of treatment",more pronounced
same,"C-Terminal Telopeptide (CTX-1), Baseline, Mean",[7]; E4 15 mg daily,416.0 ng/L
same,"C-Terminal Telopeptide (CTX-1), Baseline, Median",[7]; E4 15 mg daily,339.0 ng/L
same,"C-Terminal Telopeptide (CTX-1), End Of Treatment Actual Change from Baseline, Mean","[7]; E4 15 mg daily, after 12 weeks",-95.0 ng/L
same,"C-Terminal Telopeptide (CTX-1), End Of Treatment Actual Change from Baseline, Median","[7]; E4 15 mg daily, after 12 weeks",-142.5 ng/L
same,"C-Terminal Telopeptide (CTX-1), End Of Treatment Actual Value, Mean","[7]; E4 15 mg daily, after 12 weeks",320.9 ng/L
same,"C-Terminal Telopeptide (CTX-1), End Of Treatment Actual Value, Median","[7]; E4 15 mg daily, after 12 weeks",197.5 ng/L
same,"C-Terminal Telopeptide (CTX-1), Baseline, Mean",[7]; E4 20 mg daily,422.50 ng/L
same,"C-Terminal Telopeptide (CTX-1), Baseline, Median",[7]; E4 20 mg daily,416.5 ng/L
same,"C-Terminal Telopeptide (CTX-1), End Of Treatment Actual Change from Baseline, Mean","[7]; E4 20 mg daily, after 28 days",-147.60 ng/L
same,"C-Terminal Telopeptide (CTX-1), End Of Treatment Actual Change from Baseline, Median","[7]; E4 20 mg daily, after 28 days",-138.0 ng/L
same,"C-Terminal Telopeptide (CTX-1), End Of Treatment Actual Value, Mean","[7]; E4 20 mg daily, after 28 days",274.9 ng/L
same,"C-Terminal Telopeptide (CTX-1), End Of Treatment Actual Value, Median","[7]; E4 20 mg daily, after 28 days",267.50 ng/L
same,"Vaginal pain associated with sexual activity score (none=0 to severe=3), mean ± SD","post-menopausal women [8]; E4 2.5 mg, Baseline",0.6 ± 0.77
same,"Vaginal pain associated with sexual activity score (none=0 to severe=3), mean ± SD","post-menopausal women [8]; E4 2.5 mg, Week 12",0.3 ± 0.73
same,"Vaginal pain associated with sexual activity score (none=0 to severe=3), mean ± SD","post-menopausal women [8]; E4 5 mg, Baseline",1 ± 1.07
same,"Vaginal pain associated with sexual activity score (none=0 to severe=3), mean ± SD","post-menopausal women [8]; E4 5 mg, Week 12",0.5 ± 0.78
same,"Vaginal pain associated with sexual activity score (none=0 to severe=3), mean ± SD","post-menopausal women [8]; E4 10 mg, Baseline",0.6 ± 0.77
same,"Vaginal pain associated with sexual activity score (none=0 to severe=3), mean ± SD","post-menopausal women [8]; E4 10 mg, Week 12",0.2 ± 0.36
same,"Vaginal pain associated with sexual activity score (none=0 to severe=3), mean ± SD","post-menopausal women [8]; E4 15 mg, Baseline",0.7 ± 0.90
same,"Vaginal pain associated with sexual activity score (none=0 to severe=3), mean ± SD","post-menopausal women [8]; E4 15 mg, Week 12",0.3 ± 0.54
